Experiment [1] addresses T1, Ankyrin repeat and protein kinase domain-containing protein 1 (Homo sapiens) (UniProt Q8NFD2).
T1 sequence (whole entry): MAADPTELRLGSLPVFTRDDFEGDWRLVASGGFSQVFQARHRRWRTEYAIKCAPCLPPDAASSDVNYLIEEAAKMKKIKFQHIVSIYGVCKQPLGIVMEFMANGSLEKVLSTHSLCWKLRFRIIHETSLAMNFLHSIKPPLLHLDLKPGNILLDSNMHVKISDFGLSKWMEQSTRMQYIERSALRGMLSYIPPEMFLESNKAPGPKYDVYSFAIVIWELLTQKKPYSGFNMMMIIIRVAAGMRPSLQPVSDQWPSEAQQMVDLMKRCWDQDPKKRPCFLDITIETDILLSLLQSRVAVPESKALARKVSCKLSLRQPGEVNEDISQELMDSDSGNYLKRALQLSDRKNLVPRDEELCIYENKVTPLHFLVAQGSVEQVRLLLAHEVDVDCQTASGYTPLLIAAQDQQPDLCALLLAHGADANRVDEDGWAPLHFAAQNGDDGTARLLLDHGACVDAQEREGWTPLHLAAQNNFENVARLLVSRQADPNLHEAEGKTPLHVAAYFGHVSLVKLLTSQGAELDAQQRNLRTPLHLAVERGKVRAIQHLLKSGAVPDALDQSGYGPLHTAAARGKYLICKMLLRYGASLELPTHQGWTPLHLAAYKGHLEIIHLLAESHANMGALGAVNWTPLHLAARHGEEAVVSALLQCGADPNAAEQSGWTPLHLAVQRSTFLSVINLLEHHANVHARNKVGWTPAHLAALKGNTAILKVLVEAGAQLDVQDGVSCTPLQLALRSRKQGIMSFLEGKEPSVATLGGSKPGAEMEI
Put plainly: Inhibition of ANKK1 (unknown origin) assessed as residual activity at 100 nM by KINOMEscan analysis relative to control.

In experiment [2] the target is T2, Aurora kinase A (Homo sapiens) (UniProt O14965).
T2 sequence (whole entry): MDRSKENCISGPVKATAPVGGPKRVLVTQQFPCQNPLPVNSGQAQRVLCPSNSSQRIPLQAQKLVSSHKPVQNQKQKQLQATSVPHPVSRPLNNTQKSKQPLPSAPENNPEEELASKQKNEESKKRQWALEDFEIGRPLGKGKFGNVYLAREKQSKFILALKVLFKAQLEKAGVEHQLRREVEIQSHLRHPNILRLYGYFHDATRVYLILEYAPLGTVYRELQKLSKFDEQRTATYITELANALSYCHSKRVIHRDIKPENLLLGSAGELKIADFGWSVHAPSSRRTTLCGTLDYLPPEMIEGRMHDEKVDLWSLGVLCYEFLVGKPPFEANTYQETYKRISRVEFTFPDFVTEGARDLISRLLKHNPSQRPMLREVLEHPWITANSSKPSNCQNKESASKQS
Put plainly: Inhibition of AURKA (unknown origin) assessed as residual activity at 100 nM by KINOMEscan analysis relative to control.

Experiment [3] concerns the target Fibroblast growth factor receptor 1 (Homo sapiens) (UniProt P11362). Nature of the experiment: Inhibition of FGFR1 (unknown origin) assessed as residual activity at 100 nM by KINOMEscan analysis relative to control.
Experiment [4] concerns the target T3, Interleukin-1 receptor-associated kinase 3 (Homo sapiens) (UniProt Q9Y616).
T3 sequence (whole entry): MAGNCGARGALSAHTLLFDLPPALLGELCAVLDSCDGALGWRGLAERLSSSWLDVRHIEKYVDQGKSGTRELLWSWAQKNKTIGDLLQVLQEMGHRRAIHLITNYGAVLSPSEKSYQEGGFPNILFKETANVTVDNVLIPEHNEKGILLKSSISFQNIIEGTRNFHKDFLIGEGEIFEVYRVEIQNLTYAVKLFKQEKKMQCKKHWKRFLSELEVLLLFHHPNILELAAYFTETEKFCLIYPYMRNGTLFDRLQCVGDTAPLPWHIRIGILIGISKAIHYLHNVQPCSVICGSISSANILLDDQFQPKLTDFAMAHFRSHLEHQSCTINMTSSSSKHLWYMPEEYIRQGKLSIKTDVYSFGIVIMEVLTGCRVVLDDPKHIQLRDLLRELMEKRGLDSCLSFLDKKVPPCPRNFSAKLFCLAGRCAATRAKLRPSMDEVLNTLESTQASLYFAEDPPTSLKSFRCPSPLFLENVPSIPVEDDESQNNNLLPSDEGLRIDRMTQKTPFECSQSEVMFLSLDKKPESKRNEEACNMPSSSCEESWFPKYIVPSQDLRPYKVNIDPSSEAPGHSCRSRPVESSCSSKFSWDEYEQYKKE
Nature of the experiment: Inhibition of IRAK3 (unknown origin) assessed as residual activity at 100 nM by KINOMEscan analysis relative to control.

For experiment [5], the target named is Serine/threonine-protein kinase 10 (Homo sapiens) (UniProt O94804). Put plainly: Inhibition of LOK (unknown origin) assessed as residual activity at 100 nM by KINOMEscan analysis relative to control.
For experiment [6], the target named is Serine/threonine-protein kinase N1 (Homo sapiens) (UniProt Q16512). Put plainly: Inhibition of PKN1 (unknown origin) assessed as residual activity at 100 nM by KINOMEscan analysis relative to control.
Experiment [7] concerns the target Ribosomal protein S6 kinase alpha-5 (Homo sapiens) (UniProt O75582). Nature of the experiment: Inhibition of N-terminal RPS6KA5 kinetic domain 1 (unknown origin) assessed as residual activity at 100 nM by KINOMEscan analysis relative to control.
Experiment [8] has as its target Serine/threonine-protein kinase 16 (Homo sapiens) (UniProt O75716). Put plainly: Inhibition of STK16 (unknown origin) assessed as residual activity at 100 nM by KINOMEscan analysis relative to control.
Experiment [9] has as its target Cyclin-dependent kinase 4 (Homo sapiens) (UniProt P11802). Put plainly: Inhibition of CDK4 (unknown origin) assessed as residual activity at 1000 nM by KINOMEscan analysis relative to control.

Sequence of Serine/threonine-protein kinase 10 (Homo sapiens) (O94804 whole entry, looked up): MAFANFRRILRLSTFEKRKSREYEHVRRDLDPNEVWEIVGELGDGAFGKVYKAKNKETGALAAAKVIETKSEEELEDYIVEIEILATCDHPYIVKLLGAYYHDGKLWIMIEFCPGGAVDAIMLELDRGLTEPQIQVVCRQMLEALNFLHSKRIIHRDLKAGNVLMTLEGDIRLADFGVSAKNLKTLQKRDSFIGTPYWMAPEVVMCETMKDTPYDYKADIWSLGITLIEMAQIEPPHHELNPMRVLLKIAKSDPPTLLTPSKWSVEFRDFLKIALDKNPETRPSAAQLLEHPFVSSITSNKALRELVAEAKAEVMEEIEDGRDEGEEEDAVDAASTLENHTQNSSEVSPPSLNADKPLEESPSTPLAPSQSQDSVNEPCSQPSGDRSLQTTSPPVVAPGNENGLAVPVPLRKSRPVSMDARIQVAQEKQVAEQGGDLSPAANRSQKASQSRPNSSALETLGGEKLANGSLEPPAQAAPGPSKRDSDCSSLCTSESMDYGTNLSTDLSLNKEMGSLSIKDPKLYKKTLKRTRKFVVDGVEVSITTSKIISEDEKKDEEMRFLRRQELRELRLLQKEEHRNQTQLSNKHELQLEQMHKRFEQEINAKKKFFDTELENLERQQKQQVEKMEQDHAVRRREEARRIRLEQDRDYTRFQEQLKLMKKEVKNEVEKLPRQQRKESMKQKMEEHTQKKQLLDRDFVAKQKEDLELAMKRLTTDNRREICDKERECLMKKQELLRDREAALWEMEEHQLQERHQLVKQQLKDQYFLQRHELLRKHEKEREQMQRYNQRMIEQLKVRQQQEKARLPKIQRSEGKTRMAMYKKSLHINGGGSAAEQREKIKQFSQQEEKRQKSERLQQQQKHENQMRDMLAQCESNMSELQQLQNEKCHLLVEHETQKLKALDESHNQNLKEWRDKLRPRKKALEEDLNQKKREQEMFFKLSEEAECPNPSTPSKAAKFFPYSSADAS
Sequence of Serine/threonine-protein kinase 16 (Homo sapiens) (O75716 whole entry): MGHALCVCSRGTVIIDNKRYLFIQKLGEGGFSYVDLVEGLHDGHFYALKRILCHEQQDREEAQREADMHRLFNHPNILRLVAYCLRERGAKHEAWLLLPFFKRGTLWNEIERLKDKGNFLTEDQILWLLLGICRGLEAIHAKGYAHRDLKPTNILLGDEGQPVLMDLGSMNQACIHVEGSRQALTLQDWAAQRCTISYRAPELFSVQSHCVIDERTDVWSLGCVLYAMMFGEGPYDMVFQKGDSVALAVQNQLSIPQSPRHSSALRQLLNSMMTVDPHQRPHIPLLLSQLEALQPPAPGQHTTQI
Sequence of Cyclin-dependent kinase 4 (Homo sapiens) (P11802 whole entry): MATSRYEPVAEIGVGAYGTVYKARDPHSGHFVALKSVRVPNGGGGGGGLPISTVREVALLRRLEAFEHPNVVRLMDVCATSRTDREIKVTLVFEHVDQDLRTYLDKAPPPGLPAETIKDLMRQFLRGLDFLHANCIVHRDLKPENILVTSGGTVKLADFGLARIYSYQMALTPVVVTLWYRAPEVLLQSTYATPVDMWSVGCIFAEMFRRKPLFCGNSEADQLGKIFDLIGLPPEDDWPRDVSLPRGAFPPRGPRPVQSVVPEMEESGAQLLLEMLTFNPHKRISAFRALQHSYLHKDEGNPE
Sequence of Serine/threonine-protein kinase N1 (Homo sapiens) (Q16512 2-942 limits assumed): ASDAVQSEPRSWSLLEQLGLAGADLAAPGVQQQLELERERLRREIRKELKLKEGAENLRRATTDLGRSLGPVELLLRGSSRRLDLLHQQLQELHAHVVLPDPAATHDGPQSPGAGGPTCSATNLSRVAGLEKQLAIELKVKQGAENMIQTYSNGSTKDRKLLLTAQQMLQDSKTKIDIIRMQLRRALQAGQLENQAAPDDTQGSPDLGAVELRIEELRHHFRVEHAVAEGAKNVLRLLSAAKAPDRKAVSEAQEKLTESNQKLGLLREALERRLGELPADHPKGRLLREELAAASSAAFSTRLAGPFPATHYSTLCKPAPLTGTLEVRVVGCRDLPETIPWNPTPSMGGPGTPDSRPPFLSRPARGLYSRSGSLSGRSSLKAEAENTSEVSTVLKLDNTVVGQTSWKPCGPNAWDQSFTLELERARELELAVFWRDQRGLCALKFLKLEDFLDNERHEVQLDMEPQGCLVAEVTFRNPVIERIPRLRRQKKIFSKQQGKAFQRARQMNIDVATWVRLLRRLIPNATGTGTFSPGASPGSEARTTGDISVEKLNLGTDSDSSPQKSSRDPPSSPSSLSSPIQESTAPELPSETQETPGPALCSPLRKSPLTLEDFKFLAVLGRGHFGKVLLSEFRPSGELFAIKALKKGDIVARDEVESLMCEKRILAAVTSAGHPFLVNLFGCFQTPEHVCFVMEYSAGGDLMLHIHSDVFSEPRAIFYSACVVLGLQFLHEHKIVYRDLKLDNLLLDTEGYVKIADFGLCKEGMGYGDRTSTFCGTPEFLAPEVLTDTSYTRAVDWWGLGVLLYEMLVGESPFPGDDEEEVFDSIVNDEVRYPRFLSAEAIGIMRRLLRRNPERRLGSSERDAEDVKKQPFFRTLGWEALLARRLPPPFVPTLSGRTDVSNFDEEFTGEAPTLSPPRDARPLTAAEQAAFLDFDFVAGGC
Sequence of Ribosomal protein S6 kinase alpha-5 (Homo sapiens) (O75582 whole entry, looked up, the tested form may be a part): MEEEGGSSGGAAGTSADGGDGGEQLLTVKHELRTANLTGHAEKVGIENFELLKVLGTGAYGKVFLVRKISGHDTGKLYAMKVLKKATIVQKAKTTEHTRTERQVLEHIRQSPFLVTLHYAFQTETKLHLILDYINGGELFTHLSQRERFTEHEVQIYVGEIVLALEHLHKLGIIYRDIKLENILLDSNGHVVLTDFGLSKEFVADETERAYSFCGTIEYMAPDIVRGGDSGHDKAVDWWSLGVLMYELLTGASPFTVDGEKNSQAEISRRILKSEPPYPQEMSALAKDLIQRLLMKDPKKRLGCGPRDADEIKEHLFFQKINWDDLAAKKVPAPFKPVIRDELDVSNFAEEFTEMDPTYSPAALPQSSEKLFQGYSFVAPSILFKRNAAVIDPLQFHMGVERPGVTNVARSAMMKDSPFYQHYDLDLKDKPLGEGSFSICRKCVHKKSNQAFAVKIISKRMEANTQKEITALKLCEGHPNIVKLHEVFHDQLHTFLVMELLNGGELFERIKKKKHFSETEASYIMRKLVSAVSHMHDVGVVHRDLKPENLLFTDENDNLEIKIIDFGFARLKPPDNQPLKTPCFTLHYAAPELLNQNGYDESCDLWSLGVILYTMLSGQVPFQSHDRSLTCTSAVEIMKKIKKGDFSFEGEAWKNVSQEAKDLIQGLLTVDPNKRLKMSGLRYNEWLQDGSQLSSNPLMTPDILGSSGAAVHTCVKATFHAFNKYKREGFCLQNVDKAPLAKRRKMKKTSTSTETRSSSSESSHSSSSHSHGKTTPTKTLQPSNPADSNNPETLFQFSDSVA
Sequence of Fibroblast growth factor receptor 1 (Homo sapiens) (P11362 22-822 limits assumed): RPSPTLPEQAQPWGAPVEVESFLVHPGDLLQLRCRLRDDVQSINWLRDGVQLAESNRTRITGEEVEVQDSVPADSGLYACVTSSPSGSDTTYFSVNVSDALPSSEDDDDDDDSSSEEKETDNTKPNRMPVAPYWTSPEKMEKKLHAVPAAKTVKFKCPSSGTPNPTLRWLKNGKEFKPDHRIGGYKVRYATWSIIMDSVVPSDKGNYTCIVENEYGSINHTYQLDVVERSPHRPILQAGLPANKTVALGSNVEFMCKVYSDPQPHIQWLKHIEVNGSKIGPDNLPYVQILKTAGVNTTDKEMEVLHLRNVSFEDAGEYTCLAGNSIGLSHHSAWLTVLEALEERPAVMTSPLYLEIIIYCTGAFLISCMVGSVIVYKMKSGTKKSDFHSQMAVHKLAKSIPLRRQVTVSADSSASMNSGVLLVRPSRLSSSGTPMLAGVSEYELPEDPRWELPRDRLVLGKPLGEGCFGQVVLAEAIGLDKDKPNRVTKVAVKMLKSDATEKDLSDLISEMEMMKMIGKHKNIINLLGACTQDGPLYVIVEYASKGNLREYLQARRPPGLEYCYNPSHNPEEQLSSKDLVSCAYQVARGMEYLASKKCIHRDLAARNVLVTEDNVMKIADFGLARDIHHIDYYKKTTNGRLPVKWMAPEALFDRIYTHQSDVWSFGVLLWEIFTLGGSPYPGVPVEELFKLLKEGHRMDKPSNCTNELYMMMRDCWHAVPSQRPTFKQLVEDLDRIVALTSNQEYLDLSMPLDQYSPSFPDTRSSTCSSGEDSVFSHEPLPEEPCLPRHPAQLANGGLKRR

With `COc1cc2ncnc(N[C@H](C)c3cccc4ccccc34)c2cc1OC`, the Activity turned out to be 97% in experiment [1]; 100% in [2]; 100% in experiment [3]; 100% in experiment [4]; 98% in experiment [5]; 92% in [6]. The Activity in experiment [7] and in experiment [8] was 93% in each case.
For `COc1cc2nc(C)nc(N[C@H](C)c3cccc(-c4cn[nH]c4)c3)c2cc1OC`, the Activity in experiment [9] amounted to 92%.

(Values after ChEMBL document CHEMBL5678818, “Discovery of potent SOS1 inhibitors that block RAS activation via disruption of the RAS-SOS1 interaction” (Proc Natl Acad Sci U S A, 2019).)
